Data from patent publication US8993622B2, “Antiviral compounds” (Eirium AB, priority 2010, dated 2015).
Like-named read-outs stand apart in the source and are kept apart here.

Experiments:
Ad5 = assay: microbe, parasite or virus in culture; type: cell-based, human adenovirus
[1] = tested on: coxsackievirus A24 variant (CVA24v); assay: Coxsackievirus fluorescent focus assay in HCE cells; type: cell-based; design: key: +++: No visible fluorescence was observed; ++: some infected cells were detected; details: 18 h
Method: Approximately 2×10^5 human corneal epithelial (HCE) cells were plated in 24-well plates the day prior infection. On the day of infection the media was removed and was replaced with media containing 70 virus particles of CVA24v per cell and serial dilutions of compound 35j, ranging from 50- to 6.25 μM. After 18 h of incubation at 37° C. in 5% CO2, the cells were fixed using ice-cold 100% methanol for 5 min. Thereafter, the cells were incubated with a monoclonal mouse anti-VP1 structural protein antibody (clone 5-D8/1, DakoCytomation) diluted 1:200 in PBS, for 1 h in RT. The cells were then washed with PBS and incubated with FITC labeled anti-mouse secondary antibody (DakoCytomation), diluted 1:100 for 1 h, RT, in the dark. Further, unbound antibody was washed away in PBS and the cells were examined in fluorescent microscope.

[2] = Cellular toxicity of select compounds (% dead cells, CC50); type: cell-based; details: conclusions
cells = assay: as above; type: cell-based; details: 24 h

Molecule `O=C(Nc1cc(F)c(F)cc1C(=O)Nc1ccccc1C(=O)O)c1ccccc1F` [Compound 35j, 2-[4,5-difluoro-2-(2-fluorobenzoylamino)-benzoylamino]benzoic acid] has a toxicity/activity selectivity index (Ad5; CC50/EC50) of 890, an EC50 (Ad5; Human adenovirus sp., A549, read-out: EC50-value) of 300 nM and an EC50 (Ad5; unidentified adenovirus, A549) of 270 nM. For the same molecule, the inhibition at 5 µM (Ad5; unidentified adenovirus, A549, read-out: % Inh. at 5 μM) was 94 ± 3%, the inhibition at 15 µM (Ad5; unidentified adenovirus, A549, read-out: % Inh. at 15 μM) was 93 ± 2% and the “Relative inhibition of CVA24v” value ([1]; 6.25 μM) was “++”. For the same molecule, the “Relative inhibition of CVA24v” value ([1]; 12.5 μM) was “++”, the “Relative inhibition of CVA24v” value ([1]; 25 μM) was “+++” and the “Relative inhibition of CVA24v” value ([1]; 50 μM) was “+++”. The CC50 [2] was 240 µM, the “Toxicity at 30 μM (% dead cells after 24 h)” value (cells; 30 μM) was 6 ± 4% and the “Toxicity at 60 μM (% dead cells after 24 h)” value (cells; 60 μM) was 16 ± 9%.
